Test system: MRSA
Assay: CFU counts of MRSA plated on agar with antibiotic after sub-lethal NIMELS laser (Examples IX-XII)
Type: cell-based, Staphylococcus aureus
Conditions: antibiotic at resistant MIC just below effectiveness level
From the text: The following parameters illustrate the general bacterial methods according to the invention as applied to MRSA for the in vitro Experiments V and VIII-XII.
The null hypothesis is μ1−μ2=0 and μ1−μ3=0 where:
a) μ1 is sub-lethal dosimetry from the NIMEL laser system on MRSA as a control and;
The null hypothesis is μ1−μ2=0 and μ1−μ3=0 where: • a) μ1 is sub-lethal dosimetry from the NIMEL laser system on MRSA as a control and; • b)μ2 is the same sub-lethal dosimetry from the NIMEL laser system on MRSA with the addition of tetracycline at resistant MIC just below effectiveness level and; • c) μ3 is the same sub-lethal dosimetry from the NIMEL laser system on MRSA with the addition of rifampin at resistant MIC just below effectiveness level.
The null hypothesis is μ1−μ2=0 and μ1−μ3=0 where: a) μ1 is sub-lethal dosimetry from the NIMEL laser system on MRSA as a control and; b)μ2 is the same sub-lethal dosimetry from the NIMEL laser system on MRSA with the addition of methicillin at resistant MIC just below effectiveness level and; […]

COc1cccc(OC)c1C(=O)N[C@@H]1C(=O)N2[C@@H]1SC(C)(C)[C@@H]2C(=O)O [Methicillin]
effect of sub-lethal NIMELS irradiation on antibiotic action against MRSA colonies (words): successful reversal of MRSA resistance | effect of sub-lethal NIMELS irradiation on antibiotic action against MRSA colonies (words) (listed as methicillin): being potentiated by the NIMELS effect

Source: patent US20110295343A1, “NEAR-INFRARED ELECTROMAGNETIC MODIFICATION OF CELLULAR STEADY-STATE MEMBRANE POTENTIALS” (priority 2008, published 2011)
